Read-outs that look alike come from different tables or passages of the source.
Columns and labels:
Mia paca-2 cells = experiment: In-vitro killing of pancreatic cancer cells (CellTiter-Glo); type: cell-based; details: 11 small molecules, max 10 uM, 3-fold dilution
Experimental: • Experimental and analytical method: we used Mia paca-2 cells as a research object. This cell line was a pancreatic cancer cell line and was widely used in an antimicrobial susceptibility experiment. We performed the antimicrobial susceptibility experiment on 11 small molecules, with a maximum concentration of 10 uM and a 3-fold dilution, resulting in a concentration gradient of seven points. Cell viability assay was performed using CellTiter-Glo, and a dosage-response curve was plotted using GraphPad Prism. A resulting antimicrobial susceptibility curve was shown in the figure below. • Results: the antimicrobial susceptibility curve was shown in FIG. 53, where a lower IC50 value indicates a higher sensitivity to the small molecule.

[1] = test system: OCI-LY3 (human diffuse large B-cell lymphoma cells); experiment: Cell proliferation assay, OCI-LY3; type: cell-based; details: Homo sapiens, OCI-Ly3, 72 h
Experimental: (§1) • Experimental and analytical method: cells were inoculated into a 96-well cell culture plate with a lid at a maximum concentration of 10 μM for a test compound, and diluted in three folds to a series of test concentrations, and cells were incubated at 37° C., 5% CO2 for 72 h. The concentration of DMSO was 0.5%, 100 μl of medium was taken from each well. 100 μl of reagent (Celltitute Glo Assay Kit) was added to each well, and a flat plate was shaken on a plate shaker (protected from light) for 2 min. A culture plate was incubated (protected from light) at room temperature for 30 min. Chemiluminescence values were recorded by a multi-plate plate reader, and the experimental results were as follows:
(§2) U937 (histiocytic lymphoma cells), OCI-LY3 (human diffuse large B-cell lymphoma cells), U2932 (human diffuse large B-cell lymphoma cells), and HT cells (human mixed lymphoma cells) were analyzed in the table for experimental analysis of cell proliferation.

[2] = test system: U937 (histiocytic lymphoma cells); experiment: Cell proliferation assay, U937; type: cell-based; details: Homo sapiens, U-937, 72 h
Experimental: as §1, §2

[3] = test system: Lepr gene mutant (DB) mice; experiment: Excessive urination in DB animals; type: in vivo, mouse; details: 80 mpk by gavage once every two days, 5 weeks; vs model group
From the text: • Experimental and analytical method: leptin receptor gene (OB-R) was also known as diabetes gene (db), leptin receptor (Lepr) is closely related to obesity, hypertension, diabetes, lipid metabolism disorders, etc. The courses of these diseases are greatly influenced by the genetic background. Topical insulin can not control the increase in blood glucose and gluconeogenesis levels in the liver. Gene editing technologies and embryo injection technologies were used to construct Lepr gene mutant mice. […] The urine volume of each mouse of this strain was as huge as hundreds of times that of normal mice, so patients with frequent urination could be simulated. The experiment was divided into three groups, i.e., a model group (non-administrated, onset mice with high urine volume), a control group (non-administrated, non-onset normal mice), and an experimental group (administrated Embodiment 1A, 80 mpk, by gavage once every two days), with 2 mice in the control group, and 3 mice in the other two groups. The small molecule used was Embodiment 1A. We observed the urine volume in cages of mice housed in single cages starting from Week 8 and after 5 weeks of continuous drug treatment. […] Experiment 32. Cardiovascular Inflammation Alleviation Effect on APOE Mutant Mice Fed with High-Fat Diets.

[4] = test system: HT cells (human mixed lymphoma cells); experiment: Cell proliferation assay, HT; type: cell-based; details: Homo sapiens, HT, 72 h
Experimental: as §1, §2

[5] = test system: U2932 (human diffuse large B-cell lymphoma cells); experiment: Cell proliferation assay, U2932; type: cell-based; details: U2932, 72 h
Experimental: as §1, §2

hippocampal neurons = experiment: L-cysteine-induced neuronal excitotoxicity; type: cell-based, SD rats; details: compound 1 μM, 24 h before inducer
Experimental: Experimental and analytical method: before the experiment, a 24-well cell culture plate was pretreated with Poly-D-lysine and placed in a cell incubator at 37° C. and 5% CO2 overnight. SD rats, 18 days pregnant, were ordered, brains of fetal rats (E18-19) were dissected, and hippocampal neurons in the brains were subjected to primary culture in a neuronal medium using a 24-well plate, and then cultured by a serum-free medium. The hippocampal neurons were cultured in a cell incubator at 37° C., 5% CO2 for 19 days (DIV19), then added with a compound to be tested (a final concentration of 1 μM) and a positive control AP5 [(2R)-amino-5-phosphonopentanoic acid(phosphonatopentanoate)] (a final concentration of 100 μM), cultured for 24 h, and then added with L-Cystine (400 μM) and NaHCO3 (10 mM). After 18 h, Hoechst3342 (2.5 μg/ml) was added for cell staining. The cells were placed in the incubator and cultured for 15 min, and photographed using the high-content fluorescence microscope, wherein 6 random non-overlapping fields were photographed for each duplicate well, and the total number of neurons and the number of dead neurons were counted with software Image J. The obtained data was used to determine whether there was a difference between a drug treatment group and a control group.
Compound treatment: 32 small molecule compounds in Embodiment 1 to Embodiment 19A were diluted with DMSO to a 1 mM mother solution; and 1 μL of mother solution was added to 1 ml of culture solution per well in a 24-well plate to a final concentration of 1 μM, wherein a positive control compound was […] of AP5 (100 mM mother solution), and a negative control was 1 μl of DMSO.

[6] = test system: transgenic AD mice (C57BL/6J background); experiment: Water maze test of AD mice; details: 6 months after administration
From the text: • Experimental and analytical method: in this experiment, transgenic mice from APP/P Embodiment 13B were used, and background mice were C57BL/6J. […] The process of the water maze test was divided into three stages: the first stage lasted for 1 day; and in order to adapt to this stage, there was an escape platform having a diameter of 8 cm in a large pool having a diameter of 1.2 m, and there were four marks of circle, triangle, box and fork in four directions of east, west, north and south on the pool wall as hints of spatial positions. The rats were sequentially placed into transparent water along the pool wall, with the water surface 1 cm below the escape platform. The mice would easily find the escape platform, and was then rescued from the water maze after climbing onto the platform, thereby learning basic rules of the water maze. The second stage lasted for 4 days and was a training stage. The settings for the tool remained unchanged, the water surface was raised to 1 cm above the escape platform, and ink was poured to strain the water black, so that the escape platform was not visible. Every day, the mice were put into the pool from the four directions of the east, south, west and north, and rescued after successfully climbing onto the escape platform. […]

[7] = test system: transgenic AD mice (C57BL/6J background); experiment: Nesting behaviors of AD mice; type: in vivo, mouse; details: administered from 2 months of age; tested 3 and 6 months after administration
From the text: One symptom of AD patients was the inability to take care of themselves, while nesting behaviors reflected the self-care level of the mice. At the beginning of the experiment, 10 pieces of rectangular paper were placed neatly in mouse cages in order. Normal mice would tear up pieces of paper and build nests, while mice with severe AD symptoms would not tear up pieces of paper and build nests.

[8] = test system: transgenic AD mice (C57BL/6J background); experiment: Light/dark box test of AD mice; type: in vivo, mouse; details: 6 months after administration
From the text: The principle of the light/dark box test is: the mice have a natural tendency to darkness; and after the mice was put into a light box, the mice would spontaneously enter a connected dark box. However, in this experiment, the dark box was equipped with an electrical stimulation mechanism, and the mice would be shocked when they entered the dark box.

## C[C@H]1CC[C@@]2(OC1)O[C@H]1C[C@H]3[C@@H]4CC[C@@H]5C[C@@H](NC(=O)CC(=O)N6CCN(C7CCN(C)CC7)CC6)CC[C@]5(C)C4CC[C@]3(C)[C@H]1[C@@H]2C (stereo partly drawn) [Embodiment 26A]
Mia paca-2 cells
  sensitivity of Mia paca-2 cells (IC50 comparison): highest sensitivity

## C[C@H]1CC[C@@]2(OC1)O[C@H]1C[C@H]3[C@@H]4CC[C@@H]5C[C@@H](NC(=O)CCN6CCN(C)CC6)CC[C@]5(C)[C@H]4CC[C@]3(C)[C@H]1[C@@H]2C [Embodiment 1A]
[1]
  IC50: 1900 nM
[2]; low sugar, read-out: U937 (IC50, uM) Low sugar
  IC50: 1.8 µM
[2]; normal sugar, read-out: U937 (IC50, uM) Normal sugar
  IC50: 2.13 µM
[3]
  urine wetting area in mouse cage: significantly reduced
[4]
  IC50: 1640 nM
[5]
  IC50: 620 nM
Hippocampal neurons
  protective effects on L-Cystine (400 μM)-induced neuronal excitotoxicity: protective effects

## CCN1CCN(C2CCN(C(=O)CC(=O)NC3CC[C@]4(C)C5CC[C@]6(C)[C@@H]7[C@H](C[C@H]6[C@@H]5CC[C@@H]4C3)O[C@]3(CC[C@H](C)CO3)[C@H]7C)CC2)CC1 (stereo partly drawn) [Embodiment 25]
[6]
  dwell time in a target quadrant: most obvious
  number of platform shuttles: most obvious
[7]
  nesting behavior score: most obvious
[8]
  memory on electric shock (latency before entering the dark box): could effectively enhance the memory

— patent US20250213593A1, “Use of Derivatives based on Sarsasapogenin Structure and Pharmaceutical Compositions thereof” (BEIJING PHYTOVENT PHARMACEUTICAL TECHNOLOGY CO., LTD., priority 2022, published 2025)
